Entries after “also recorded” stand apart in the source; their conditions may differ.
Assays:
JAK1/2, ABL, and FLT-3 = assay: DiscoveRx KINOMEscan, upstream STAT5 activating kinases; type: binding; conditions: 5 μM
MYC = assay: Western blot of STAT5 transcriptional target MYC in K562 cells; type: cell-based, human; conditions: 5 h
[1] = test system: phosphorylated STAT5 (Y694); assay: Western blot of phosphorylated STAT5; type: cell-based, human; conditions: K562 cells, 5 h treatment
MCL-1 = assay: Western blot of STAT5 transcriptional target MCL-1 in K562 cells; type: cell-based, human; conditions: 24 h, 15 μM
K562 cells = assay: Western blot of apoptosis markers; type: cell-based, human; conditions: 24 h, 15 μM
pSTAT3 = assay: Western blot of pSTAT3 in MDA-MB-231 cells; type: cell-based
MV-4;11 (FLT3-ITD) cells = assay: CellTiter-Blue cell viability assay in MV-4; type: cell-based, human
[2] = test system: healthy human CD34+ umbilical cord cells; assay: Cell viability in healthy human CD34+ umbilical cord cells; type: cell-based

CC(C)(C)c1cc(CN(C(=O)CN(Cc2ccc(Cl)cc2)S(=O)(=O)c2c(F)c(F)c(F)c(F)c2F)c2ccc(C(=O)O)c(O)c2)cc(C(C)(C)C)c1 [13a]
effect against upstream STAT5 activating kinases JAK1/2, ABL, FLT-3 (JAK1/2, ABL, and FLT-3): negligible effects | MYC (c-Myc) expression (MYC): dose-dependent decreases; also recorded: Knockdown | concentration at which pSTAT5 is ablated [1]: above 10 μM | pSTAT5 (Y694) levels [1]: decreased pSTAT5 in a dose dependent manner | MCL-1 expression (MCL-1): complete knockdown | cell death / apoptosis (cleaved PARP-1, Caspase-3) (K562 cells): undergo cell death; also recorded: Initiation of apoptosis | pSTAT3 inhibition (pSTAT3; MDA-MB-231, doses corresponding to pSTAT5 inhibition in leukemic cell line): not inhibited | effect on pSTAT3 (pSTAT3; MDA-MB-231 cells, up to 20 μM): no effect | cell viability of MV4-11 cells (MV-4;11 (FLT3-ITD) cells; 10 μM): abolished | IC50 (MV-4;11 (FLT3-ITD) cells; Homo sapiens, MV4-11, 72 h, read-out: IC50, cell viability MV4;11): 3.5 µM | difference in sensitivity CD34+ vs MV4-11 (therapeutic window) [2]: approximate order of magnitude | cell viability of healthy CD34+ cells ([2]; 10 μM): little reduction in cell viability; also recorded: limited effect on cell viability
